Laboratory results: ChEMBL document CHEMBL5042483, “Discovery and Mechanism of SARS-CoV-2 Main Protease Inhibitors” (J Med Chem, 2022)
Calls of active or inactive are those of the source. The rule behind the calls is not given here.

Columns and labels:
[1] = Inhibition of GST-tagged SARS-CoV-2 main protease expressed in Escherichia coli BL21 competent cells using DABCYL-Val-Asn-Ser-Thr-Leu-Gln-Ser-Gly-Leu-Arg-Lys-EDANS as substrate measured every 10 mins for 1 hr by FRET assay; design: species or system Severe acute respiratory syndrome coronavirus 2
SARS-CoV-2 [2] = assay type: functional, organism-based, Vero E6; details: Severe acute respiratory syndrome coronavirus 2, USA_WA1/2020, Vero C1008
[3] = Distribution coefficient, logD of compound at pH 7.4 by shake flask method; assay type: physicochemical; details: octanol/water
[4] = system: Severe acute respiratory syndrome coronavirus 2; experiment: (§1) Reversible covalent inhibition of SARS-CoV-2 main protease expressed in Escherichia coli BL21 competent cells using DABCYL-Val-Asn-Ser-Thr-Leu-Gln-Ser-Gly-Leu-Arg-Lys-EDANS as fluorogenic substrate assessed as reduction in product formation at 1 to 10 uM preincubated for 30 mins in presence of DTT by dilution assay; details: dose 1-10 µM
SARS-CoV-2 [5] = experiment: Antiviral activity against SARS-CoV-2 USA_WA1/2020 infected in human Calu-3 cells assessed as reduction in viral RNA replication pretreated for 1 hr with compound followed by viral infection for 1.5 hrs then followed by washout the cells and re-incubated with compounds for 24 hrs by qRT-PCR method; assay type: functional, organism-based; details: Severe acute respiratory syndrome coronavirus 2, USA_WA1/2020, Calu-3
[6] = Toxicity in human iPSC derived lung organoids infected with SARS-CoV-2 USA_WA1/2020 measured after 24 hrs
[7] = Inhibition of SARS-CoV-2 main protease expressed in Escherichia coli using MCA-AVLQSGFR-Lys(Dnp)-Lys-NH2 as substrate by FRET assay; design: species or system Severe acute respiratory syndrome coronavirus 2
SARS-CoV-2 [8] = experiment: microbe, parasite or virus in culture; details: Severe acute respiratory syndrome coronavirus 2, Vero C1008, 24 h
[9] = system: Severe acute respiratory syndrome coronavirus 2; experiment: as §1, with “at” for “at 1 to”, “incubated” for “preincubated”, “mins” for “mins in presence of DTT”, “assay relative to control” for “assay”
[10] = system: Severe acute respiratory syndrome coronavirus 2; experiment: as §1, with “at” for “at 1 to”, “absence” for “presence”, “assay relative to control” for “assay”
[11] = system: Severe acute respiratory syndrome coronavirus 2; experiment: as §1, with “at” for “at 1 to”, “assay relative to control” for “assay”
[12] = system: Severe acute respiratory syndrome coronavirus 2; experiment: Competitive inhibition of SARS-CoV-2 main protease assessed as inhibitor concentration dependent Km with constant Vmax at 0.5 to 10 uM using varying concentrations of DABCYL-KTSAVLQ1SGFRKM-E(EDANS)-NH2 as substrate by double reciprocal plot analysis; details: dose 0.5-10 µM
[13] = system: Severe acute respiratory syndrome coronavirus 2; experiment: as §1, with “1” for “1 to 10”, “absence” for “presence”, “assay relative to control” for “assay”
[14] = system: Severe acute respiratory syndrome coronavirus 2; experiment: as §1, with “1” for “1 to 10”, “incubated” for “preincubated”, “mins” for “mins in presence of DTT”, “assay relative to control” for “assay”
[15] = system: Severe acute respiratory syndrome coronavirus 2; experiment: as §1, with “1” for “1 to 10”, “assay relative to control” for “assay”

| Compound | IC50 [1] [µM] | EC50 (SARS-CoV-2 [2]) [µM] | further results |
| --- | --- | --- | --- |
| O=c1c2ccccc2[se]n1-c1cccc(Cl)c1 | 0.68 | 17.4 | logD [3]: 1.53; inhibition [4]: Active |
| O=c1c2ccccc2[se]n1-c1cccc(C(F)(F)F)c1 | 2.77 | 0.8 | logD [3]: 3.18; EC50 (SARS-CoV-2 [5]): 1.3 µM; Activity [6]: Non-Toxic |
| COc1ccc(-n2[se]c3ccccc3c2=O)cc1 | 1.25 | 1.7 |  |
| O=C[C@H](C[C@@H]1CCNC1=O)NC(=O)[C@H](Cc1cccc(F)c1)NC(=O)c1cc2ccccc2[nH]1 |  |  | IC50 [7]: 0.04 µM; EC50 (SARS-CoV-2 [8]): 0.72 µM |
| O=c1c2ccccc2[se]n1-c1ccccc1F | > 10 | > 20 |  |
| O=c1c2ccccc2[se]n1Cc1ccc(C(F)(F)F)cc1 | > 10 | 11.2 |  |
| CCc1ccc(-n2[se]c3ccccc3c2=O)cc1 | 6.18 | 6.5 | logD [3]: 2.87; EC50 (SARS-CoV-2 [5]): 8.8 µM |
| O=c1c2ccccc2[se]n1-c1ccc(C(F)(F)F)cc1 | 0.9 | 11.2 | logD [3]: 3.19; EC50 (SARS-CoV-2 [5]): 2.8 µM; inhibition [9]: 86%; inhibition [10]: 48%; inhibition [11]: 43%; inhibition [12]: Active; inhibition [13]: 44% |
| COc1cccc(-n2[se]c3ccccc3c2=O)c1 | > 10 | 15.1 |  |
| COc1ccc(Cl)cc1-n1[se]c2ccccc2c1=O | > 10 | > 20 |  |
| O=c1c2ccccc2[se]n1-c1ccccc1 [EBSELEN] |  | > 20 | logD [3]: 0.92; EC50 (SARS-CoV-2 [5]): 5 µM; inhibition [14]: 65%; inhibition [9]: 89%; inhibition [10]: 91%; inhibition [12]: Active |
| Cc1ccccc1-n1[se]c2ccccc2c1=O | 7.43 | 20.7 |  |
| CCCCCCCn1[se]c2ccccc2c1=O | 5.56 | 17.3 |  |
| COc1ccc(F)cc1-n1[se]c2ccccc2c1=O | 3.3 | > 20 |  |
| O=c1c2ccccc2[se]n1-c1ccc(Br)cc1 | 2.77 | 5.2 | logD [3]: 1.46; EC50 (SARS-CoV-2 [5]): 15.7 µM |
| CSc1ccccc1-n1[se]c2ccccc2c1=O | > 10 | > 20 |  |

| Compound | IC50 [1] [µM] | EC50 (SARS-CoV-2 [2]) [µM] | further results |
| --- | --- | --- | --- |
| O=c1c2ccccc2[se]n1-c1c(F)cccc1F | 2.09 | > 20 |  |
| Cc1ccc(-n2[se]c3ccccc3c2=O)cc1C | > 10 | 12.2 |  |
| O=c1c2ccccc2[se]n1-c1ccc(Cl)cc1OC(F)(F)F | > 10 | > 20 |  |
| COc1ccc2c(=O)n(-c3ccccc3)[se]c2c1 | 6.4 | 11.2 |  |
| CCCCCCCCn1[se]c2ccccc2c1=O | 2.69 | > 20 |  |
| O=c1c2ccccc2[se]n1-c1ccc(F)cc1C(F)(F)F | > 10 | > 20 |  |
| CCC(CC)COC(=O)[C@H](C)NP(=O)(OC[C@H]1O[C@@](C#N)(c2ccc3c(N)ncnn23)[C@H](O)[C@@H]1O)Oc1ccccc1 (single isomer, unassigned) |  | 1.8 | EC50 (SARS-CoV-2 [5]): 0.8 µM |
| COc1ccc(Cn2[se]c3ccccc3c2=O)c(OC)c1 | 0.61 | 26.5 | logD [3]: 0.85; inhibition [4]: Active |
| Cc1ccc(-n2[se]c3ccccc3c2=O)cc1 | 2.29 | 15.4 |  |
| O=c1c2ccccc2[se]n1-c1ccc(F)cc1 | 2.78 | 16.7 |  |
| COc1ccc(Cn2[se]c3ccccc3c2=O)cc1 | > 10 | > 20 |  |
| CCCCCn1[se]c2ccccc2c1=O | > 10 | > 20 |  |
| O=c1c2ccccc2[se]n1-c1cc(Cl)cc(Cl)c1 | 0.64 | 18.2 | logD [3]: 1.67; inhibition [4]: Active |
| O=c1c2ccccc2[se]n1Cc1ccc(F)cc1 | 1 | > 20 | inhibition [15]: 53% |
| COc1cc(F)ccc1-n1[se]c2ccccc2c1=O | 1.8 | > 20 |  |
| N#Cc1cccc(-n2[se]c3ccccc3c2=O)c1 | 0.38 | 2 | logD [3]: 1.45; inhibition [14]: 29%; inhibition [9]: 94%; inhibition [10]: 64% |
